Values of other authors, collected in patent US20140329770A1, “Compositions Comprising Phytoestrogens Receptor Beta Agonists and Dietary Fibers for Chemopreventive Treatment of Sporadic Adenomatous Polyposis” (CM&D PHARMA LIMITED, priority 2011, published 2014).

Assays:
rectal ACF = details: 6-months intervention, subjects at increased risk for CRC

SMILES | Reduction in rectal ACF numbers compared with maltodextrins (rectal ACF) | Tumor growth of human SW480 CRC (human SW480 CRC; feeding, nu/nu mice) | Toxicity (human SW480 CRC; mouse, in vivo)
CC(C)c1c(C(=O)Nc2ccccc2)c(-c2ccccc2)c(-c2ccc(F)cc2)n1CC[C@@H](O)C[C@@H](O)CC(=O)O [atovarstastin] | did not demonstrate significant reductions | – | –
CC1=C(CC(=O)O)c2cc(F)ccc2/C1=C\c1ccc([S+](C)[O-])cc1 (stereo not shown) [sulindac] | did not demonstrate significant reductions | – | –
COc1cc(C2Oc3cc([C@H]4Oc5cc(O)cc(O)c5C(=O)[C@@H]4O)ccc3OC2CO)ccc1O (stereo partly shown) [silybinin] | – | suppressed | Without any apparent toxicity
